Results from ChEMBL document CHEMBL4699530, “Isolation, Structural Elucidation, and Anti-HIV Activity of Daphnane Diterpenoids from Daphne odora” (J Nat Prod, 2020).
pEC50, pIC50: −log10 of the molar value.

Experiments:
[1] = test system: Human immunodeficiency virus; assay: Antiviral activity against HIV NL4-3 infected in human MT4 cells assessed as suppression of viral replication by measuring reduction in p24 level measured after 4 days by ELISA method; type: functional, organism-based; conditions: Human immunodeficiency virus 1, NL4-3, MT4, 96 h
MT4 = assay: Cytotoxicity against human MT4 cells assessed as reduction in cell viability incubated for 4 days by CellTiter-Glo assay; type: cell-based; conditions: MT4, 96 h

| SMILES | pEC50 [1] | pIC50 (MT4) |
| --- | --- | --- |
| C=C(C)[C@]1(O)C[C@@H](C)[C@@]2(O)[C@@H]([C@H]3O[C@@]4([C@H](O)[C@]3(O)COC(=O)c3ccccc3)[C@@H](OC(=O)/C=C/C=C/C=C/CCC)[C@@H](C)C[C@@H]24)[C@H]1O | < 7.47 | < 7.47 |
| C=C(C)[C@@]1(O)[C@H](OC(=O)/C=C/C=C/C=C/CCC)[C@@H]2[C@@H]3O[C@]3(CO)[C@@H](O)[C@]3(O)C(=O)C(C)=C[C@H]3[C@@]2(O)[C@H](C)[C@H]1OC(=O)/C=C/c1ccc(O)c(OC)c1 | < 7.47 | < 7.47 |
| C=C(C)[C@@]12O[C@@]3(/C=C/C=C/C=C/CCC)O[C@@H]1[C@@H]1[C@@H]4O[C@]4(CO)[C@@H](O)[C@]4(O)C(=O)C(C)=C[C@H]4[C@@]1(O3)[C@H](C)[C@H]2OC(=O)c1ccccc1 | 8.72 | < 7.47 |
| C=C(C)[C@@]12O[C@@]3(c4ccccc4)O[C@@H]1[C@@H]1[C@@H]4O[C@]4(CO)[C@@H](O)[C@]4(O)C(=O)C(C)=C[C@H]4[C@@]1(O3)[C@H](C)[C@H]2OC(=O)/C=C/C=C/C=C/CCC | 8.64 | < 7.47 |
| C=C(C)[C@@]12O[C@@]3(/C=C/C=C/C=C/CCC)O[C@@H]1[C@@H]1[C@@H]4O[C@]4(CO)[C@@H](O)[C@]4(O)C(=O)C(C)=C[C@H]4[C@@]1(O3)[C@H](C)[C@H]2OC(=O)/C=C/c1ccc(O)c(OC)c1 | 8.35 | < 7.47 |
| C=C(C)[C@@]1(O)[C@H](OC(=O)/C=C/C=C/CCCCC)[C@@H]2[C@@H]3O[C@]3(CO)[C@@H](O)[C@]3(O)C(=O)C(C)=C[C@H]3[C@@]2(O)[C@H](C)[C@H]1OC(=O)/C=C/c1ccccc1 | < 7.47 | < 7.47 |
| C=C(C)[C@@]12O[C@@]3(/C=C/C=C/C=C/CCC)O[C@@H]1[C@@H]1[C@@H]4O[C@]4(CO)[C@@H](O)[C@]4(O)C(=O)C(C)=C[C@H]4[C@@]1(O3)[C@H](C)[C@H]2OC(=O)/C=C/c1ccccc1 | 8.43 | < 7.47 |
| C=C(C)[C@@]12O[C@@]3(/C=C/C=C/C=C/CCC)O[C@@H]1[C@@H]1[C@@H]4O[C@]4(CO)[C@@H](O)[C@]4(O)C(=O)C(C)=C[C@H]4[C@@]1(O3)[C@H](C)[C@H]2OC(=O)/C=C/c1ccc(O)cc1 | 8.80 | < 7.47 |
| C=C(C)[C@@]12O[C@@]3(/C=C/C=C/CCCCC)O[C@@H]1[C@@H]1[C@@H]4O[C@]4(CO)[C@@H](O)[C@]4(O)C(=O)C(C)=C[C@H]4[C@@]1(O3)[C@H](C)[C@H]2OC(=O)/C=C/c1ccc(O)c(OC)c1 | 8.82 | < 7.47 |
| C=C(C)[C@@]12O[C@@]3(/C=C/C=C/CCCCC)O[C@@H]1[C@@H]1[C@@H]4O[C@]4(CO)[C@@H](O)[C@]4(O)C(=O)C(C)=C[C@H]4[C@@]1(O3)[C@H](C)[C@H]2OC(=O)/C=C/c1ccccc1 | 8.66 | < 7.47 |
| C=C(C)[C@@]12O[C@@]3(/C=C/C=C/CCCCC)O[C@@H]1[C@@H]1[C@@H]4O[C@]4(CO)[C@@H](O)[C@]4(O)C(=O)C(C)=C[C@H]4[C@@]1(O3)[C@H](C)[C@H]2OC(=O)/C=C/c1ccc(O)cc1 | 8.11 | < 7.47 |
| C=C(C)[C@@]12O[C@@]3(/C=C/C=C/CCCCC)O[C@@H]1[C@@H]1[C@@H]4O[C@]4(CO)[C@@H](O)[C@]4(O)C(=O)C(C)=C[C@H]4[C@@]1(O3)[C@H](C)[C@H]2OC(=O)c1ccccc1 [GNIDILATIDIN] | 8.72 | < 7.47 |
